Measurements as given in ChEMBL document CHEMBL1201862, “PubChem BioAssay data set” (2004).
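Five concentrations, 48 hours, 96-well plates. GI50: concentration for 50% inhibition of growth.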 Activity calls are given as the source filed them. Rule as the data show it: active = GI50 up to about 1.1 µM and inactive = higher.

Experiments:
Test in all cases: NCI anticancer screen, dose series, 48 h
[1] = system: SF-539
[2] = system: UACC-257
[3] = system: MDA-MB-231
[4] = system: MDA-MB-435
[5] = system: SN12C
[6] = system: T47D
[7] = system: SF-268
[8] = system: SNB-19
[9] = system: NCI/ADR-RES
[10] = system: A549
[11] = system: OVCAR-4
[12] = system: CAKI-1
[13] = system: HCT-15
[14] = system: TK-10
[15] = system: IGROV-1
[16] = system: MDA-N
[17] = system: M14
[18] = system: DU-145
[19] = system: U-251
[20] = system: RPMI-8226
[21] = system: HCT-116
[22] = system: HT-29
[23] = system: OVCAR-3
[24] = system: RXF 393
[25] = system: OVCAR-8
[26] = system: NCI-H226
[27] = system: NCI-H522
[28] = system: SNB-75
[29] = system: MCF7
[30] = system: SF-295
[31] = system: COLO 205
[32] = system: NCI-H23
[33] = system: PC-3
[34] = system: SW-620
[35] = system: OVCAR-5
[36] = system: Malme-3M
[37] = system: 786-0
[38] = system: BT-549
[39] = system: UO-31
[40] = system: KM12
[41] = system: UACC-62
[42] = system: SK-MEL-28
[43] = system: HCC 2998
[44] = system: SK-MEL-2
[45] = system: MOLT-4
[46] = system: HL-60
[47] = system: K562
[48] = system: SK-MEL-5
[49] = system: HOP-92

Which results are given for `COc1cc(C2c3cc4c(cc3OC(Nc3ccccc3)C2C)OCO4)cc(OC)c1O` (centres undefined)?
GI50 [1]: 2.84 µM (inactive); GI50 [2]: 7.73 µM (inactive); GI50 [3]: 4.33 µM (inactive); GI50 [4]: 0.394 µM (active); GI50 [5]: 4.66 µM (inactive); GI50 [6]: 15.8 µM (inactive); GI50 [7]: 7.48 µM (inactive); GI50 [8]: 10.6 µM (inactive); GI50 [9]: 2.38 µM (inactive); GI50 [10]: 3.85 µM (inactive); GI50 [11]: 11.8 µM (inactive); GI50 [12]: 8.39 µM (inactive); GI50 [13]: 3.02 µM; GI50 [14]: 3.49 µM (inactive); GI50 [15]: 4.55 µM (inactive); GI50 [16]: 1.18 µM (inactive); GI50 [17]: 15.5 µM (inactive); GI50 [18]: 4.02 µM (inactive); GI50 [19]: 3.95 µM (inactive); GI50 [20]: 3.69 µM (inactive); GI50 [21]: 3.93 µM (inactive); GI50 [22]: 3.85 µM (inactive); GI50 [23]: 4.47 µM (inactive); GI50 [24]: 4.45 µM (inactive); GI50 [25]: 4.75 µM (inactive); GI50 [26]: 19.6 µM (inactive); GI50 [27]: 2.35 µM (inactive); GI50 [28]: 1.63 µM (inactive); GI50 [29]: 4.47 µM (inactive); GI50 [30]: 4.28 µM (inactive); GI50 [31]: 11.3 µM (inactive); GI50 [32]: 7.03 µM (inactive); GI50 [33]: 2.8 µM (inactive); GI50 [34]: 3.37 µM (inactive); GI50 [35]: 7.96 µM (inactive); GI50 [36]: 5.47 µM (inactive); GI50 [37]: 7.5 µM (inactive); GI50 [38]: 11.5 µM (inactive); GI50 [39]: 8.38 µM (inactive); GI50 [40]: 4.41 µM (inactive); GI50 [41]: 3.66 µM (inactive); GI50 [42]: 5.57 µM (inactive); GI50 [43]: 4.12 µM (inactive); GI50 [44]: 2.22 µM (inactive); GI50 [45]: 0.836 µM (active); GI50 [46]: 1.92 µM (inactive); GI50 [47]: 1.97 µM (inactive); GI50 [48]: 3.08 µM (inactive); GI50 [49]: 16.7 µM (inactive)
